The values that follow come from ChEMBL document CHEMBL3352476, “Antimicrobial Constituents of the Mature Carpels of Manglietiastrum sinicum” (J Nat Prod, 2014).

Assay [1] is described as follows: Cytotoxicity against human HL60 cells by MTT assay. It counts as functional, cell-based. As to conditions: HL-60. (Tetrazolium dyes change colour on reduction, which living cells bring about.)
A short description of assay [2]: Cytotoxicity against human SSMC-7721 cells by MTT assay. The format is functional, cell-based.
A further assay relates to A549. Briefly: Cytotoxicity against human A549 cells by MTT assay. It counts as functional, cell-based.
The next assay concerns MCF7. As to the kind of experiment: Cytotoxicity against human MCF7 cells by MTT assay. It counts as functional, cell-based.
The next assay concerns SW480. As to the kind of experiment: Cytotoxicity against human SW480 cells by MTT assay. It counts as functional, cell-based.
The test system of assay [3] is Platelet. As to the kind of experiment: Inhibition of PAF-induced platelet aggregation in rabbit platelet rich plasma at 200 ug/ml preincubated for 10 mins before addition of inducer by aggregometry. As to conditions: Oryctolagus cuniculus. It counts as functional.
Assay [4] relates to Platelet. Briefly: Inhibition of ADP-induced platelet aggregation in rabbit platelet rich plasma at 200 ug/ml preincubated for 10 mins before addition of inducer by aggregometry. As to conditions: Oryctolagus cuniculus. It counts as functional.
In assay [5] the test system is Platelet. Briefly: Inhibition of arachidonic acid-induced platelet aggregation in rabbit platelet rich plasma at 200 ug/ml preincubated for 10 mins before addition of inducer by aggregometry. It counts as functional. As to conditions: Oryctolagus cuniculus.
For assay [6], the system named is Staphylococcus aureus. As to the kind of experiment: Antimicrobial activity against methicillin-resistant Staphylococcus aureus 82 by 2-fold dilution assay. The format is functional.
Assay [7] deals with Staphylococcus aureus. As to the kind of experiment: Antimicrobial activity against methicillin-resistant Staphylococcus aureus 92 by 2-fold dilution assay. The format is functional.
The subject of assay [8] is Staphylococcus aureus. Briefly: Antimicrobial activity against methicillin-resistant Staphylococcus aureus 98 by 2-fold dilution assay. It counts as functional.
For assay [9], the system named is Staphylococcus aureus. As to the kind of experiment: Antimicrobial activity against methicillin-resistant Staphylococcus aureus 331 by 2-fold dilution assay. The format is functional.
Assay [10] has as its system Staphylococcus aureus. Briefly: Antimicrobial activity against Staphylococcus aureus by 2-fold dilution assay. The format is functional.
Assay [11] relates to Staphylococcus aureus. As to the kind of experiment: Antimicrobial activity against Staphylococcus aureus by agar plate punch assay. It counts as functional.

pIC50: −log10 of the molar value. Values after ≈ are worked out from the molar mass of the structure shown. Where a name gives a salt, the structure may show the parent alone. Active and inactive are the calls of the source. The calls are words filed in the database; no cut-off is given here.

Broadly, the pIC50 is −log10 of the IC50, conventionally taken in molar units. A high value points to a low IC50. For orientation: MIC means the lowest concentration that inhibits growth of the organism. A higher MIC goes with a less susceptible organism. Regarding `COc1cc([C@@H]2O[C@H](c3ccc4c(c3)OCO4)[C@H](C)[C@H]2C)cc(O)c1OC`, the pIC50 (in [1]; in assay [2]; with A549; with MCF7; with SW480) was less than 4.40 each time. In addition, the inhibition entry in the assay on Platelet [3], with Platelet [4] and in the assay with Platelet [5] was “inactive” each time. The MIC against Staphylococcus aureus [6] worked out at 67 µM (≈ 25 µg/mL); against Staphylococcus aureus [7], 67 µM (≈ 25 µg/mL); against Staphylococcus aureus [8], 67 µM (≈ 25 µg/mL); in the assay on Staphylococcus aureus [9], 34 µM (≈ 12.7 µg/mL); against Staphylococcus aureus [10], 67 µM (≈ 25 µg/mL).

In the case of `COc1cc(C(=O)O[C@@H](c2cc(O)c(OC)c(OC)c2)[C@H](C)C(C)=O)cc(O)c1OC`, the “diameter of the inhibition zone (DIZ)” value with Staphylococcus aureus [11] is recorded as less than 10 mm. The pIC50 (in assay [1]; in assay [2]; with A549; in the assay with MCF7; in the assay on SW480) was less than 4.40 throughout. The inhibition result with Platelet [3], in the assay with Platelet [4] and with Platelet [5] was “inactive” in each case.

On to `COc1cc2c(cc1O)[C@@H]1O[C@H](c3cc4c(c(OC)c3-2)OCO4)[C@H](C)[C@@H]1C`, for which the negative-log IC50 (pIC50) in [1] was 4.77; in assay [2], 4.42; with A549 it was less than 4.40; in the assay on MCF7, less than 4.40; with SW480, less than 4.40. The inhibition result in the assay with Platelet [3], in the assay on Platelet [4] and in the assay on Platelet [5] was “inactive” throughout. Moreover, the MIC is 140 µM (≈ 51.9 µg/mL) in the assay on Staphylococcus aureus [6]; 68 µM (≈ 25.2 µg/mL) in the assay with Staphylococcus aureus [7]; 34 µM (≈ 12.6 µg/mL) in the assay on Staphylococcus aureus [8]; 140 µM (≈ 51.9 µg/mL) in the assay on Staphylococcus aureus [9]; 68 µM (≈ 25.2 µg/mL) in the assay on Staphylococcus aureus [10].

Take `COC1=CC2(C=C(OC)C1=O)C[C@@H](C)[C@H](C)Cc1cc3c(c(OC)c12)OCO3`: the pIC50 (in assay [1]; in [2]; in the assay on A549; with MCF7; with SW480) was less than 4.40 throughout. Moreover, the inhibition result in the assay with Platelet [3], in the assay on Platelet [4] and in the assay on Platelet [5] was “inactive” in each case. In addition, the MIC in the assay on Staphylococcus aureus [6] is 65 µM (≈ 25.1 µg/mL); in the assay on Staphylococcus aureus [7] it was 65 µM (≈ 25.1 µg/mL); in the assay with Staphylococcus aureus [8], 16 µM (≈ 6.18 µg/mL); against Staphylococcus aureus [9] it was 32 µM (≈ 12.4 µg/mL); against Staphylococcus aureus [10] it was 130 µM (≈ 50.2 µg/mL).

For `CN[C@H](CC(C)C)C(=O)N[C@H]1C(=O)N[C@@H](CC(N)=O)C(=O)N[C@H]2C(=O)N[C@H]3C(=O)N[C@H](C(=O)N[C@H](C(=O)O)c4cc(O)cc(O)c4-c4cc3ccc4O)[C@H](O)c3ccc(c(Cl)c3)Oc3cc2cc(c3O[C@@H]2O[C@H](CO)[C@@H](O)[C@H](O)[C@H]2O[C@H]2C[C@](C)(N)[C@H](O)[C@H](C)O2)Oc2ccc(cc2Cl)[C@H]1O` [VANCOMYCIN HYDROCHLORIDE], the MIC was 0.54 µM against Staphylococcus aureus [6]; 0.54 µM against Staphylococcus aureus [7]; 0.54 µM against Staphylococcus aureus [8]; 0.54 µM with Staphylococcus aureus [9]; 1.1 µM against Staphylococcus aureus [10].

As to `COc1cc([C@H]2O[C@@H](c3ccc4c(c3)OCO4)[C@H](C)[C@@H]2C)cc(O)c1OC`, the pIC50 in assay [1] is 4.40; in assay [2] it was less than 4.40; in the assay on A549, 4.56; in the assay on MCF7, 4.85; with SW480, 4.72. Further, the inhibition result in the assay on Platelet [3], in the assay on Platelet [4] and in the assay with Platelet [5] was “inactive” throughout. For the same molecule, the MIC was 67 µM (≈ 25 µg/mL) in the assay on Staphylococcus aureus [6]; 67 µM (≈ 25 µg/mL) against Staphylococcus aureus [7]; 34 µM (≈ 12.7 µg/mL) against Staphylococcus aureus [8]; 130 µM (≈ 48.4 µg/mL) in the assay with Staphylococcus aureus [9]; 67 µM (≈ 25 µg/mL) in the assay with Staphylococcus aureus [10].

Turning to `COc1cc(C(=O)O[C@@H](c2cc(OC)c(OC)c(OC)c2)[C@H](C)C(C)=O)ccc1O`, the “diameter of the inhibition zone (DIZ)” value in the assay on Staphylococcus aureus [11] is recorded as less than 10 mm. Besides, the negative-log IC50 (pIC50) (in assay [1]; in assay [2]; in the assay on A549; with MCF7; in the assay with SW480) was less than 4.40 throughout. In addition, the inhibition entry in the assay on Platelet [3], with Platelet [4] and in the assay on Platelet [5] was “inactive” each time.

In the case of `COc1cc([C@@H]2O[C@H](c3cc(O)c(OC)c(OC)c3)[C@@H](C)[C@@H]2C)ccc1O`, the pIC50 (in [1]; in assay [2]; with A549; in the assay with MCF7; in the assay with SW480) was less than 4.40 each time. The inhibition result in the assay with Platelet [3], in the assay on Platelet [4] and in the assay with Platelet [5] was “inactive” throughout. Also, the MIC in the assay on Staphylococcus aureus [6] was 67 µM (≈ 25.1 µg/mL); in the assay with Staphylococcus aureus [7] it was 130 µM (≈ 48.7 µg/mL); in the assay with Staphylococcus aureus [8], 130 µM (≈ 48.7 µg/mL); against Staphylococcus aureus [9] it was 130 µM (≈ 48.7 µg/mL); with Staphylococcus aureus [10], 130 µM (≈ 48.7 µg/mL).
